The structures appear in SMILES notation.

The values below come from patent US20090318527A1, “INDOLE COMPOUNDS AND METHODS OF USE THEREOF” (priority 2008, published 2009).

One data set has as its target T1, human 5-HT2A receptor (Homo sapiens, UniProt P28223).
T1 construct: expressed in transfected cells; host or cells: HEK 293
Description: Intracellular calcium flux assay, HEK 293 cells stably expressing 5-HT2A.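 As to all read-outs here: fluorescent calcium dye read on FLIPR Tetra, peak signal above baseline within 60 s after compound addition, seven concentrations spanning 10 pM to 10 µM.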 The format is cell-based. The conditions noted are these: for 5-HT2A response as percentage of the maximal 5-HT response @ 10,000 / Emax at 10 µM: at 10,000 nM; for 5-HT2A response as percentage of the maximal 5-HT response @ 10,000: EC50 not reached; for EC50: calcium flux, at least three independent experiments, each in triplicate, read-out: 5-HT2A mean EC50 ± SD; for Emax at 10 µM: HEK293, read-out: 5-HT2A functional activity (N/A class).

For a further data set, the target named is T2, human 5-HT2B receptor (Homo sapiens, UniProt P41595).
T2 construct: expressed in transfected cells; host or cells: HEK 293
T2 sequence (P41595 whole entry): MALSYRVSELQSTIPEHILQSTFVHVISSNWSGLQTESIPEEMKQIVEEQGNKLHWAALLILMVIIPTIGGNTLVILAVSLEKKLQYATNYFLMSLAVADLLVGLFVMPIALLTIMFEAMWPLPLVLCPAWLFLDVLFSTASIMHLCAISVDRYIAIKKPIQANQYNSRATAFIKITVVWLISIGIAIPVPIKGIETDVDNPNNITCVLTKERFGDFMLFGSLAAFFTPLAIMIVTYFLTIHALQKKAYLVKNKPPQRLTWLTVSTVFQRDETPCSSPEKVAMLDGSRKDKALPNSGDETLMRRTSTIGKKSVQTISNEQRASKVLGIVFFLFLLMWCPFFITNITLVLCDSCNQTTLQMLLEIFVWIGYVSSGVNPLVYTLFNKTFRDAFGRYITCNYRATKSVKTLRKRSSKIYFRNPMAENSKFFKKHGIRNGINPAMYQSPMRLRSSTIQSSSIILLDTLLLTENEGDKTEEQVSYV
Kind of data set: Intracellular calcium flux assay, HEK 293 cells stably expressing 5-HT2B.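 As to all read-outs here: calcium dye fluorescence read on a FLIPR Tetra, peak signal above baseline within 60 s after compound addition, seven-point concentration series from 10 pM up to 10 µM.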 The class given is cell-based. The conditions noted are these: for Emax at 10 µM: HEK293, read-out: 5-HT2B functional activity (N/A class); for Emax: HEK293, read-out: 5-HT2B efficacy as percentage of the maximal 5-HT response ± SD; for Emax / EC50: calcium flux, at least three independent experiments; for EC50: each in triplicate, read-out: 5-HT2B mean EC50 ± SD.

Data set [1] concerns mice. Kind of data set: Serotonin-induced scratching in mice (animal model for OCD). The format is in vivo, male Swiss-Webster mice. Here is the method:
The subjects were male Swiss-Webster mice, 4-6 weeks old, weighing 25-45 g. Mice were housed 5 per cage, given free access to standard mouse food and water except during experiments, and maintained in a temperature-controlled room (70° F.). Serotonin and all test drugs were made up with ascorbic acid to protect against oxidation. Two mice, one a control, the other experimental, were tested each time. Each mouse was separately placed into a plexiglas box.
Mice were injected subcutaneously between the shoulder blades with 0.1 ml of serotonin, 0.4 mg per ml in 0.15 M saline plus ascorbic acid, 1 mg/ml. […] The cumulative number of scratches with a hind leg was recorded at 5 minute intervals for 30 minutes. One saline injected control and one test animal were tested together in each assay.

The target in another data set is T3, 5-HT2C (Homo sapiens, UniProt P28335).
T3 sequence (P28335 33-458): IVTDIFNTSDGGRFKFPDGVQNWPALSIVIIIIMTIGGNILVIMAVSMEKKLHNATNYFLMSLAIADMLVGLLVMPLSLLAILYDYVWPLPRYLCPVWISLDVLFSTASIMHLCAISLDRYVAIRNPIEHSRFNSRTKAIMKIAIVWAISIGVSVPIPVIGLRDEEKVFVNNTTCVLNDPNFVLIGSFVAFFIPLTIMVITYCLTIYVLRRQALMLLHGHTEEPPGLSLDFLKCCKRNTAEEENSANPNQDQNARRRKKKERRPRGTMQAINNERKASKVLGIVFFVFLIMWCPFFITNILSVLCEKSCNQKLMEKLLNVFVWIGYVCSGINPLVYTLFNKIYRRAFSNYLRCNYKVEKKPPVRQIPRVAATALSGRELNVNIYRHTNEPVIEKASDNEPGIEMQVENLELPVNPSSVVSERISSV
Kind of data set: Intracellular calcium flux assay, HEK 293 cells stably expressing 5-HT2C.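 As to all read-outs here: calcium dye fluorescence read on FLIPR Tetra as peak signal above baseline within 60 s of compound addition, seven concentrations from 10 pM to 10 µM, each in triplicate.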 The class given is cell-based. More on the design: expressed in transfected cells; host or cells: HEK 293. To be noted: for Emax: HEK293, read-out: 5-HT2C efficacy as percentage of the maximal 5-HT response ± SD, at least three independent experiments, entries marked a (42, 50, 51, 52) single measurements; for EC50: at least three independent experiments, entries marked a (42, 50, 51, 52) single measurements, read-out: 5-HT2C mean EC50 ± SD.

The test system of data set [2] is mice. Kind of data set: Appetite suppression studies in food-deprived mice. The format is in vivo. The conditions noted are these: mice food-deprived 18 hours, i.p.; for % Reduction from control (food consumption): p <0.05 versus saline control. As to the method:
Mice were deprived of food, but not water, for 18 hours. They were then injected i.p. with test compounds dissolved in 0.9% NaCl containing 1 mg per ml ascorbic acid for protection against oxidation. Each mouse was placed in an individual cage for 30 minutes and then presented with a small petri dish containing a gel made from gelatin, powdered milk and sucrose. The dish was weighed at zero time and at 15-minute intervals for the next hour in order to quantitate food consumption. Controls were injected with saline-ascorbic acid; ±fenfluramine was used as an active control.

Where [3] appears, read: i.p. 5 minutes before serotonin s.c., 10 mg/kg.
[4] abbreviates: i.p., 10 mg/kg, p <0.05 versus saline control.
Where [5] appears, read: i.p. 5 minutes before serotonin s.c., 3 mg/kg.
[6] abbreviates: i.p., 3 mg/kg, p <0.05 versus saline control (*p = 0.09).

T1 sequence (P28223 whole entry): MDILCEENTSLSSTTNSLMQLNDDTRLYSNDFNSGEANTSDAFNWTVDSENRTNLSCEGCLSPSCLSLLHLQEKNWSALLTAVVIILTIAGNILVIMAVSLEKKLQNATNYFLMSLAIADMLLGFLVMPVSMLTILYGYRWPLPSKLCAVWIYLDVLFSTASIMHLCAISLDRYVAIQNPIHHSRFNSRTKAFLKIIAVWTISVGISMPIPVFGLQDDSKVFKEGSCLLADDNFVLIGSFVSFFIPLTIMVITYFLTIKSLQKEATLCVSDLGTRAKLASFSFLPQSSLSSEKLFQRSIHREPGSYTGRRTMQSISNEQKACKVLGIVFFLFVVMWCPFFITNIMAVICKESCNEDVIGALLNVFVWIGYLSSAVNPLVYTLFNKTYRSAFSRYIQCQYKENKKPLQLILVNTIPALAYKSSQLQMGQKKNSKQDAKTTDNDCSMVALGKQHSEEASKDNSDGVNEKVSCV

Usually EC50 stands for the midpoint of the concentration-response curve. As to `COc1ccc(F)c2c1c(CCN(C)C)cn2C` [Compound 22, 2-(7-Fluoro-4-methoxy-1-methyl-1H-indol-3-yl)-N,N-dimethylethanamine], at human 5-HT2A receptor, the “5-HT2A response as percentage of the maximal 5-HT response @ 10,000” value (“5-HT2A response as percentage” below) was “(21 ± 6 @ 10,000) %” and the EC50 is over 10000 nM. Besides, at human 5-HT2B receptor (at 10,000 nM), the Emax at 10 µM is under 10%. For the same molecule, the “Average Number of Scratches 30 min. after injection (±SEM)” value (“Average Number … (±SEM)” for short) in the data set on mice [1] (setting [3]) worked out at 4.7 ± 4.7. The “% Reduction from control (scratches)” value with mice [1] (setting [4]) turned out to be 98.5%. The “Average Number … (±SEM)” value with mice [1] (oral gavage, 20 mg/kg) was found to be 102 ± 50.8. Moreover, the “% Reduction from control (scratches)” value with mice [1] (oral gavage, 20 mg/kg, p < 0.05) came to 83%. At 5-HT2C, the Emax was found to be 82% and the EC50 was 9.4 ± 4.9 nM. Besides, in the data set with mice [2] (10 mg/kg), the “Mean food consumption 60 min. after injection: g (±SEM) Compound” value is given as 0.15 (0.1) g and the “% Reduction from control (food consumption)” value was found to be 77%.

By melting point is commonly meant the temperature of the solid-liquid transition. The molecule `CCn1cc(CCN(C)C)c2c(OC)cc(F)cc21.Cl` [Compound 34, 2-(1-Ethyl-6-fluoro-4-methoxy-1H-indol-3-yl)-N,N-dimethylethanamine hydrochloride] returned a melting point of 233.4 to 234.9 °C. For the same molecule, at human 5-HT2A receptor, the Emax at 10 µM was under 10%. At human 5-HT2B receptor, the Emax was 21% and the EC50 was 397 ± 133 nM. Further, on 5-HT2C, the Emax stood at 82% and the EC50 came to 24 ± 8.38 nM.

The molecule `CN(C)CCc1cn(C)c2cc(F)cc(OCc3ccccc3)c12` [Compound 51, 4-Benzyloxy-3-(2-dimethylaminoethyl)-6-fluoro-1-methyl-1H-indole] yielded a melting point of 79 to 80 °C. Moreover, the Emax at 10 µM on human 5-HT2A receptor is under 10%. Further, the Emax at 10 µM at human 5-HT2B receptor (at 10,000 nM) is under 10%. Further, on 5-HT2C, the Emax is 99% and the EC50 amounted to 233 nM.

With `CNCCC(Oc1ccc(C(F)(F)F)cc1)c1ccccc1` (stereo not shown) [Fluoxetine, reference compound], the “Average Number … (±SEM)” value with mice [1] (setting [3]) is 154.8 ± 105.2. In the data set with mice [1] (setting [4]), the “% Reduction from control (scratches)” value was 63.5%.

In the case of `CCNC(C)Cc1cccc(C(F)(F)F)c1` (racemic) [(±)-Fenfluramine, reference compound], the “Average Number … (±SEM)” value with mice [1] (setting [5]) is recorded as 22.8 ± 11.7; in the data set on mice [1] (oral gavage, 10 mg/kg), 35 ± 25.8. Also, the “% Reduction from control (scratches)” value is 95% in the data set on mice [1] (setting [6]) and 94% with mice [1] (oral gavage, 10 mg/kg, p < 0.05). In addition, the “Mean food consumption 60 min. after injection: g (±SEM) Compound” value in the data set on mice [2] (5 mg/kg) is on record as 0.90 (.04) g; in the data set with mice [2] (10 mg/kg), 0.41 (.11) g. For the same molecule, the results for the “% Reduction from control (food consumption)” value with mice [2] (5 mg/kg) and in the data set on mice [2] (10 mg/kg) were 39% and 69%, respectively.

In the case of `CCCOc1cc(F)cc2c1c(CCN(C)C)cn2CCC.Cl` [Compound 39, 2-(6-Fluoro-4-propoxy-1-propyl-1H-indol-3-yl)-N,N-dimethylethanamine hydrochloride], the melting point is 170.3 to 171.4 °C. Moreover, the Emax at 10 µM at human 5-HT2A receptor was under 10%. Besides, on human 5-HT2B receptor, the Emax was 26% and the EC50 turned out to be 3120 nM. Further, on 5-HT2C, the Emax came out at 65% and the EC50 turned out to be 762 ± 469 nM.

`CCCn1cc(CCN(C)C)c2c(OCC)c(F)ccc21.Cl` [Compound 61, 2-(4-Ethoxy-5-fluoro-1-propyl-1H-indol-3-yl)-N,N-dimethylethanamine hydrochloride] returned a melting point of 141 to 143 °C. The Emax at 10 µM on human 5-HT2A receptor is under 10%. For the same molecule, the Emax at 10 µM at human 5-HT2B receptor (at 10,000 nM) is under 10%. For the same molecule, on 5-HT2C, the Emax came out at 38% and the concentration for a half-maximal effect (EC50) amounted to 13 ± 1.51 nM.

Molecule `CCCn1cc(CCN(C)C)c2c(OC)c(F)ccc21.Cl` [Compound 42, 2-(5-Fluoro-4-methoxy-1-propyl-1H-indol-3-yl)-N,N-dimethylethanamine hydrochloride] came in with a melting point of 111 to 113 °C. Further, the Emax at 10 µM on human 5-HT2A receptor was under 10%. Besides, the Emax at 10 µM at human 5-HT2B receptor (at 10,000 nM) was under 10%. Also, at 5-HT2C, the Emax stood at 34% and the half-maximal effective concentration (EC50) came to 741 nM.

`CCCOc1cc(F)cc2c1c(CCN(C)C)cn2C.Cl` [Compound 33, 2-(6-Fluoro-1-methyl-4-propoxy-1H-indol-3-yl)-N,N-dimethylethanamine hydrochloride] came in with a melting point of 195.4 to 196.8 °C. Besides, the Emax at 10 µM on human 5-HT2A receptor is under 10%. On human 5-HT2B receptor, the Emax worked out at 78% and the EC50 amounted to 182 ± 102 nM. Besides, at 5-HT2C, the Emax amounted to 91% and the EC50 came to 384 ± 193 nM.

As to `COc1c(F)ccc2c1c(CCN(C)C)cn2C.Cl` [Compound 40, 2-(5-Fluoro-4-methoxy-1-methyl-1H-indol-3-yl)-N,N-dimethylethanamine hydrochloride], the melting point is 183.6 to 186.8 °C. In addition, the Emax at 10 µM at human 5-HT2A receptor is under 10%. The Emax at 10 µM on human 5-HT2B receptor (at 10,000 nM) was under 10%. Also, in the data set with mice [1] (setting [5]), the “Average Number … (±SEM)” value is 8.2 ± 5.1. For the same molecule, the “% Reduction from control (scratches)” value with mice [1] (setting [6]) is given as 97* %. At 5-HT2C, the Emax came out at 72% and the EC50 came to 3.1 ± 1.2 nM.

Regarding `CCOc1ccc(F)c2c1c(CCN(C)C)cn2CC` [Compound 24, 2-(4-Ethoxy-1-ethyl-7-fluoro-1H-indol-3-yl)-N,N-dimethylethanamine], the melting point was in the range of 59 to 60 °C. In addition, at human 5-HT2A receptor, the “5-HT2A response as percentage” value is “(21 ± 5.5 @ 10,000) %” and the EC50 is over 2000 nM. Further, the “5-HT2B response as percentage of the maximal 5-HT response @ 10,000” value at human 5-HT2B receptor (at 10,000 nM, EC50 not reached) is reported as “(14 ± 4.8 @ 10,000) %”. For the same molecule, on human 5-HT2B receptor, the half-maximal effective concentration (EC50) is over 5000 nM. On 5-HT2C, the Emax came to 77% and the concentration giving a half-maximal response (EC50) was 57 ± 17.1 nM.

Turning to `CN(C)CCc1cn(C)c2c(F)ccc(F)c12.Cl` [Compound 65, 2-(4,7-Difluoro-1-methyl-1H-indol-3-yl)-N,N-dimethylethanamine hydrochloride], the melting point was in the range of 209 to 210 °C. Also, the Emax at 10 µM on human 5-HT2A receptor is under 10%. Moreover, the Emax at 10 µM at human 5-HT2B receptor (at 10,000 nM) was under 10%. Besides, at 5-HT2C, the Emax amounted to 41% and the EC50 is 16 ± 3.46 nM.

Regarding `CCOc1cc(F)cc2c1c(CCN(C)C)cn2CC` [Compound 35, 2-(4-Ethoxy-1-ethyl-6-fluoro-1H-indol-3-yl)-N,N-dimethylethanamine], the melting point lay in the range of 77.1 to 78.2 °C. In addition, at human 5-HT2A receptor, the “5-HT2A response as percentage” value is recorded as “(14 ± 4.8 @ 10,000) %” and the EC50 is over 10000 nM. Further, on human 5-HT2B receptor, the Emax was 47% and the EC50 is 777 ± 383 nM. Moreover, on 5-HT2C, the Emax is 88% and the EC50 is 246 ± 185 nM.

With `CCCn1cc(CCN(C)C)c2c(OC)cc(F)cc21.Cl` [Compound 37, 2-(6-Fluoro-4-methoxy-1-propyl-1H-indol-3-yl)-N,N-dimethylethanamine hydrochloride], the melting point was in the range of 119.8 to 121.3 °C. The Emax at 10 µM on human 5-HT2A receptor was under 10%. Moreover, at human 5-HT2B receptor (at 10,000 nM), the Emax at 10 µM was under 10%. At 5-HT2C, the Emax came to 69% and the EC50 stood at 354 ± 195 nM.

`CCCOc1ccc(F)c2c1c(CCN(C)C)cn2CC` [Compound 25, 2-(1-Ethyl-7-fluoro-4-propoxy-1H-indol-3-yl)-N,N-dimethylethanamine] returned a melting point of 49 to 50 °C. Moreover, at human 5-HT2A receptor, the Emax at 10 µM was under 10%. On human 5-HT2B receptor, the Emax came to 31% and the EC50 amounted to 1450 nM. At 5-HT2C, the Emax came out at 75% and the half-maximal effective concentration (EC50) was found to be 168 ± 27.2 nM.
